Source: patent US9463195B2, “Dissolution of amyloid fibrils by flavonoids and other compounds” (The Regents of the University of California, priority 2006, dated 2016)
Structures can show the parent of a compound that is named as a salt. Where two headings read alike, the source gives them in different places.

Key:
[1] = target: T1, preformed human β-2 microglobulin fibrils (Homo sapiens, UniProt P61769); experiment: Dose-response testing by thioflavin T fluorescence; format: biochemical; settings: for Dose-Response (conc. at which slope is better than control): ThT/β2M fibril fluorescence, tested 100 nM to 10 mM; for concentration at which preformed human B2M fibrils are disrupted: in the range of
T1 sequence (P61769 21-119): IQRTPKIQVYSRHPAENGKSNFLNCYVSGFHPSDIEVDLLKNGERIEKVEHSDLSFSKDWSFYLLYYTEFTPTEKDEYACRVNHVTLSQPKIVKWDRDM
Experimental: Twelve compounds were selected for testing their dose-response effects. Dose-response curves were derived as follows. Preformed β-2 microglobulin fibrils were mixed with ThT in the ratios described above and divided into portions of 40 μL per well across 8 wells. The final concentrations were the same as used in the high-throughput screen: 4.1 μM ThT, 41.2 mM glycine, 0.018 mg/mL B2M, 35 mM NaCl, 4.4 mM phosphate. The first and last wells of each row were controls (B2M fibrils+ThT+solvent (water or DMSO)). To wells 2-7 of a given row, test compound was added to the β2M fibril/ThT mix such that the following final concentrations in the well were reached: 10 mM, 1 mM, 100 μM, 10 μM, 1 μM, and 100 nM. Each row was set up in duplicate. The wells were incubated for 99 hours and data collected at 2.5 hour intervals. Compound 22 was tested using both water and DMSO as solvent.
It is visually apparent that concentrations down to 10 μM of both compound 22 and L18 affect the B2M/Tht fluorescence.

[2] = target: T1, preformed human β-2 microglobulin fibrils; experiment: Thioflavin T fluorescence high-throughput screen (slope assay score) for disruption of preformed fibrils; format: biochemical; settings: for Slope Assay Score: slope of relative ThT fluorescence versus time, more negative = stronger disruption
Experimental: As used herein, “slope assay score” means the slope of the relative fluorescence of thioflavin T versus time curve for a given compound in a thioflavin T fluorescence assay. A negative slope signifies a decrease in thioflavin T fluorescence over time.
The human β-2 microglobulin fibrils were prepared in vitro at 0.1 mg/mL protein in 25 mM phosphate, pH 2, 0.2 M NaCl without agitation for 1 week at 37° C., in the same manner as Ivanova et al. See Ivanova et al. (Proc Natl Acad Sci U.S.A. 2004 Jul. 20; 101(29):10584-9).
In our experiments, disruption of the fibrillar structure of preformed β-2 microglobulin fibrils was monitored by fluorescence. The dye used, thioflavin T, serves as a probe for the presence or absence of amyloid fibrils. Thioflavin T binds specifically to human β-2 microglobulin fibrils, causing a red shift in the fluorescence excitation spectra of the dye to produce a peak in the fluorescence emission spectrum at 482 nm when the excitation wavelength is set at 444 nm. […] Because aliquotting of fibrils has an inherent variability, we aimed for a high signal/noise ratio of ˜10.
In the fluorescence assay used here, preformed human β-2 microglobulin fibrils were mixed with a solution of 5 μM ThT in 50 mM glycine, pH 8.6 in a 3:14 ratio (final concentrations: 4.1 μM ThT, 41.2 mM glycine, 0.018 mg/mL β-2 microglobulin, 35 mM NaCl and 4.4 mM phosphate). Fluorescence was measured immediately after mixing (excitation wavelength set at 444 nm, emission wavelengths at 482, 490, and 502 nm) with a Molecular Devices FlexStation II.
In our experiments, we screened 5200 compounds to determine whether a compound could disrupt preformed human β-2 microglobulin fibrils. Preformed β-2 microglobulin fibrils and ThT were mixed in the ratios described above in Example 2 and divided among seventeen 384-well glass-bottom plates (Costar #6569) using 40 μL/well. Each of the sixteen commercial plates contained four columns of control wells: columns 1, 2, and 23 contained preformed fibrils+dimethylsulfoxide (herein, DMSO), but no compound; column 24 contained nonfibrillar β2M+DMSO (no compound). The final concentrations of compound and DMSO in the other wells were 10 μM and 1%, respectively. Compounds were obtained from the following chemical libraries: the MicroSource Discovery Systems, Inc. Spectrum Collection library (J Virology 77: 10288 (2003); Ann Rev Med 56: 321 (2005)), the first four plates from the Prestwick Chemical Inc. library, two BIOMOL plates (phosphatase/kinase inhibitor library and bioactive lipid library), and the first five plates from the ChemBridge Corporation DIVERSet.
Plate 17 was prepared in-house and set up slightly differently than the commercial plates. Column 24 contains nonfibrillar B2M as in the other plates. However, only the first two rows contain added compounds, and the remaining rows contain control samples (fibrils mixed with thioflavin T, no compound). The chemicals used to prepare this supplemental plate were purchased from SIGMA. For each compound, a 1 mM solution in OmniSolv DMSO was prepared and filtered with Millex-FG 0.2 micron filters. The supplementary plate contained compounds at 1 or 10 mM in 100% DMSO, such that the final screening concentration is 10 or 100 μM compound in I% DMSO.
All plates were read manually on a Molecular Devices FlexStation II using the bottom-read function. For each of the wells, an initial fluorescence intensity measurement was taken as a baseline.

[3] = system: preformed β-amyloid fibrils; settings: Bush 2002; cited from earlier work
β-amyloid fibrils = settings: Bush study; cited from earlier work
[4] = target: T1, preformed human β-2 microglobulin fibrils; experiment: Electron microscopy as a secondary screen of fibril disruption; format: biochemical; settings: for state of fibrils by electron microscopy at 10 μM compound / state of fibrils by electron microscopy at 1 mM compound / state of fibrils by electron microscopy at 100 μM compound: two-week incubation; for effect on fibrils by electron microscopy: at the concentrations tested
Experimental: Electron microscopy was used to confirm the effects of, among others, compounds 22 and L18 on the fibrils. Compounds 22 and L18 were mixed with drug and solvent or solvent alone and were separately incubated with preformed human β-2 microglobulin fibrils for two weeks. Compound 22 was tested at three concentrations (1 mM, 100 μM, and 10 μM). Aliquots were taken immediately after mixing, at day 2, at day 5, day 7, and day 14. Samples were fixed to grids (made hydrophilic by glow-discharge) upon taking the aliquots, washed with distilled water, and stained with 1% uranyl acetate. Grids were examined in a Hitachi H-7000 transmission electron microscope operating at 75 kV. Images were collected on Kodak electron microscope film 4489.

[5] = cited from earlier work
[6] = orally at doses at least twice this high (Ullmann, Haller et al. 2004); cited from earlier work
[7] = Gordon M et al 2006; cited from earlier work

Compound | concentration at which the compound affects thioflavin T/β-2M fibril fluorescence in a dose-dependent manner [1] | dose-dependent effect on thioflavin T/β-2 microglobulin fibril fluorescence (words) [1] | Dose-Response (conc. at which slope is better than control) [1] [µM] | effective in the fluorescence assay at disrupting β-2 microglobulin fibers [2] | Slope Assay Score [2] | effect on fibrils by electron microscopy [4] | also measured
CN1CCc2cccc3c2[C@H]1Cc1ccc(O)c(O)c1-3 [Apomorphine hydrochloride hemihydrate] | less than or equal to 1 μM | dose-dependent effect | 1 to 10 | effective | −.061 |  | 
Oc1c(I)cc(Cl)c2cccnc12 [Clioquinol] |  |  |  |  |  |  | disruption of preformed β-amyloid fibrils [3]: disrupts; effectiveness in mice (β-amyloid fibrils): effective
O=C(O[C@@H]1Cc2c(O)cc(O)cc2O[C@@H]1c1cc(O)c(O)c(O)c1)c1cc(O)c(O)c(O)c1 [Compound 22, Epigallocatechin gallate] | 10 µM | dose-dependent | 10 | disrupts | −.087 | had an effect on fibrils | state of fibrils by electron microscopy at 10 μM compound [4]: significantly disrupted; state of fibrils by electron microscopy at 1 mM compound [4]: almost all of the fibrils; average plasma level ([5]; patients, single oral dose (Chow et al. 2001)): 1 µM; plasma levels reached ([5]; single oral dose (Nakagawa, Okuda and Miyazawa 1997)): 4.4 µM; human plasma levels reached ([5]; single oral dose (Unno et al. 1996)): 2 to 4 µM; oral tolerability [6]: well-tolerated; solubility in water (Solubility in water): soluble; concentration at which preformed human B2M fibrils are disrupted [1]: ~10 µM; dose-dependent effect on thioflavin T/β-2 microglobulin fibril fluorescence (words) ([1]; listed as EGCG): dose-related effects
NC(CO)C(=O)NNCc1ccc(O)c(O)c1O (centres unmarked) [Compound L18, benserazide hydrochloride] | 10 µM |  | 10 |  | −.066 | had an effect on fibrils | plasma concentrations routinely achievable [7]: 6 µM; dose-dependent effect on thioflavin T/β-2 microglobulin fibril fluorescence (words) ([1]; hydrochloride): dose-dependent; concentration at which preformed human B2M fibrils are disrupted [1]: ~10 µM; dose-dependent effect on thioflavin T/β-2 microglobulin fibril fluorescence (words) ([1]; listed as benserazide, hydrochloride): dose-related effects
Cc1cc(O)c(C=O)c(O)c1C(=O)O [Haematommic Acid] | less than or equal to 10 μM | dose-dependent effect | 1 | effective | −.076 | visibly disrupted | state of fibrils by electron microscopy at 10 μM compound [4]: disrupted and unwound; state of fibrils by electron microscopy at 1 mM compound [4]: fibril dissolution was virtually complete
C=C1c2c(Cl)ccc(O)c2C(O)=C2C(=O)[C@]3(O)C(=O)/C(=C(\N)O)C(=O)[C@@H](N(C)C)[C@@H]3[C@@H](O)[C@H]12 [Meclocycline sulfosalicylate] | less than or equal to 10 μM | dose-dependent effect | 10 | effective | −.066 | visibly disrupted | state of fibrils by electron microscopy at 100 μM compound [4]: no intact fibrils present; state of fibrils by electron microscopy at 1 mM compound [4]: no visible fibrils
COc1cc(NC(C)CCCN)c2ncccc2c1 (centres unmarked) [Primaquine diphosphate] | less than or equal to 10 μM | dose-dependent effect | 10 | effective | −.058 |  | 
COc1cc(C)c2c(c1C=O)Oc1c(c(C)c(O)c3c1C(O)OC3=O)OC2=O (centres unmarked) [Stictic Acid] | ≤ 10 µM | dose-dependent effect | 10 | effective | −.098 | visibly disrupted | state of fibrils by electron microscopy at 100 μM compound [4]: mostly disrupted; state of fibrils by electron microscopy at 1 mM compound [4]: mostly disappeared
Cc1c(C(=O)O)c(O)cc2c1C(=O)c1c(O)c([C@@H]3O[C@H](CO)[C@@H](O)[C@H](O)[C@H]3O)c(O)c(O)c1C2=O [carminic acid] |  |  |  | effective |  |  | 
Cc1cc(N)c2ccccc2[n+]1CCCCCCCCCC[n+]1c(C)cc(N)c2ccccc21 [dequalinium dichloride] |  |  |  | effective |  |  | 
Clc1ccc(COC(Cn2ccnc2)c2ccc(Cl)cc2Cl)cc1 (centres unmarked) [econazole nitrate] |  |  |  | effective |  |  | 
COC(=O)c1c(C)c2c(c(C)c1O)OC(=O)c1c(C)c(Cl)c(O)c(Cl)c1O2 [leoidin] |  |  |  | effective |  |  | 
CCn1cc(C(=O)O)c(=O)c2ccc(C)nc21 [nalidixic acid] |  |  |  | effective |  |  | 
NCCc1cc(O)c(O)cc1O [oxidopamine] |  |  |  | effective |  |  | 
OC[C@H]1O[C@@H](Oc2cc(O)cc(/C=C/c3ccc(O)cc3)c2)[C@H](O)[C@@H](O)[C@@H]1O [resveratrol-3-glucoside] |  |  |  |  |  | did not have an effect on fibrils | 
Dobutamine hydrochloride | less than or equal to 10 μM | dose-dependent effect | 10 | effective | −.058 |  | 
